Test systems include UACC-62; KM12; SF-295; SN12C; ACHN; TK-10; NCI-H522; U-251; UO-31; SF-539; RXF 393; SW-620; SK-MEL-2; OVCAR-4; HCT-15; M14; OVCAR-3; MDA-MB-435; SNB-19; LOX IMVI.
Experiment in all cases: NCI anticancer screen, dose series, 48 h

Consider ten compounds from ChEMBL document CHEMBL1201862, “PubChem BioAssay data set” (2004).

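Following 48 hours of exposure in 96-well plates, responses at five concentrations were used to interpolate endpoints linearly. GI50 is the concentration that inhibits growth by half.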 Active and inactive are the calls of the source. Rule as the data show it: active = GI50 up to about 1.1 µM and inactive = higher. A value given as a limit tells only on which side of the number the result lay.

For the compound `O=C1OC(C(O)C(O)C(O)CO)C(O)C1O` (stereo not given), the GI50 in the test with UACC-62, with KM12, in the test on SF-295, with SN12C, in the test with ACHN and in the test on TK-10 was > 100 µM (inactive) throughout. For the same compound, the GI50 with NCI-H522, with U-251, in the test on UO-31, in the test on SF-539, in the test with RXF 393 and in the test with SW-620 was > 100 µM (inactive) in each case. The GI50 in the test on SK-MEL-2 is > 100 µM (inactive); in the test with OVCAR-4, > 100 µM (inactive); with HCT-15 it was above 100 µM; in the test on M14, > 100 µM (inactive); with OVCAR-3 it was > 100 µM (inactive); with MDA-MB-435, > 100 µM (inactive). The GI50 in the test with SNB-19 and in the test on LOX IMVI was > 100 µM (inactive) each time.

Consider `CC/C(Cl)=N\OC(=O)Nc1ccc(F)c([N+](=O)[O-])c1`, for which the GI50 with UACC-62 is 17.3 µM (inactive); with KM12, 17.5 µM (inactive); in the test on SF-295, 20.7 µM (inactive); with SN12C, 17.5 µM (inactive); in the test with ACHN, 1.92 µM (inactive); in the test on TK-10 it was 11.6 µM (inactive). Further, the GI50 was 1.93 µM (inactive) in the test with NCI-H522; 21.5 µM (inactive) in the test on U-251; 6.03 µM (inactive) in the test on UO-31; 5.32 µM (inactive) in the test with SF-539; 16.7 µM (inactive) in the test on RXF 393; 4.15 µM (inactive) in the test with SW-620. Moreover, the GI50 in the test on SK-MEL-2 is 17 µM (inactive); with OVCAR-4 it was 4.99 µM (inactive); in the test on HCT-15, 6.44 µM; in the test with M14, 10.3 µM (inactive); with OVCAR-3, 5.08 µM (inactive); in the test on MDA-MB-435, 16.3 µM (inactive). Further, the GI50 is 17.5 µM (inactive) in the test with SNB-19 and 15.6 µM (inactive) in the test with LOX IMVI.

Consider `C=CCC1(O)C(=O)OC2C(O)COC21O` (stereo not given), for which the GI50 in the test on UACC-62, with KM12, in the test with SF-295, in the test with SN12C, with ACHN and with TK-10 was > 100 µM (inactive) in each case. The GI50 in the test with NCI-H522, in the test on U-251, in the test with UO-31, with SF-539, in the test on RXF 393 and in the test with SW-620 was > 100 µM (inactive) throughout. Besides, the GI50 in the test with SK-MEL-2 is > 100 µM (inactive); in the test with OVCAR-4 it was > 100 µM (inactive); in the test with HCT-15 it was above 100 µM; with M14 it was > 100 µM (inactive); in the test with OVCAR-3, > 100 µM (inactive); in the test with MDA-MB-435 it was > 100 µM (inactive). For the same compound, the GI50 in the test on SNB-19 and in the test with LOX IMVI was > 100 µM (inactive) in each case.

Turning to `NCc1ccc(O)c(O)c1O`, the GI50 was 27.1 µM (inactive) in the test on UACC-62; 24.3 µM (inactive) in the test with KM12; 25.7 µM (inactive) in the test with SF-295; 20 µM (inactive) in the test with SN12C; 23.4 µM (inactive) in the test with ACHN; > 100 µM (inactive) in the test with TK-10. In addition, the GI50 in the test with NCI-H522 was > 59 µM (inactive); in the test on U-251 it was 24.9 µM (inactive); in the test with UO-31, 59.7 µM (inactive); in the test on SF-539, 27.1 µM (inactive); in the test on RXF 393, 40.7 µM (inactive); in the test with SW-620, 20 µM (inactive). Also, the GI50 in the test on SK-MEL-2 is 22.5 µM (inactive); in the test with OVCAR-4, 26.1 µM (inactive); in the test on HCT-15, 24.7 µM; in the test on M14 it was 14.3 µM (inactive); with OVCAR-3, 22.1 µM (inactive); in the test on MDA-MB-435, 18 µM (inactive). The GI50 with SNB-19 was 54.5 µM (inactive); in the test with LOX IMVI, 16.8 µM (inactive).

For `C[N+]12CCCCC1C(CN1C(=O)Cc3c4ccccc4c(c4ccccc34)CC1=O)CCC2` (stereo not given), the GI50 in the test with UACC-62, in the test with KM12, in the test on SF-295, with SN12C, with ACHN and in the test on TK-10 was > 100 µM (inactive) throughout. The GI50 with NCI-H522, in the test with U-251, in the test on UO-31, in the test on SF-539, in the test on RXF 393 and in the test on SW-620 was > 100 µM (inactive) in each case. Further, the GI50 in the test with SK-MEL-2 was > 100 µM (inactive); with OVCAR-4 it was > 100 µM (inactive); with HCT-15, above 100 µM; in the test on M14 it was > 100 µM (inactive); with OVCAR-3, > 100 µM (inactive); in the test on MDA-MB-435, > 100 µM (inactive). Also, the GI50 in the test on SNB-19 and in the test with LOX IMVI was > 100 µM (inactive) in each case.

Take `CCC/C(Cl)=N\OC(=O)Nc1ccc(Br)cc1`: the GI50 with UACC-62 was 18.9 µM (inactive); with KM12, 10.8 µM (inactive); with SF-295 it was 14.9 µM (inactive); with SN12C, 14 µM (inactive); in the test on ACHN, 5.05 µM (inactive); in the test with TK-10, 14.2 µM (inactive). Further, the GI50 is 1.75 µM (inactive) in the test with NCI-H522; 16.4 µM (inactive) in the test on U-251; 13 µM (inactive) in the test with UO-31; 17.5 µM (inactive) with SF-539; 16.6 µM (inactive) with RXF 393; 2.36 µM (inactive) in the test on SW-620. In addition, the GI50 with SK-MEL-2 was 15 µM (inactive); in the test on OVCAR-4 it was 21.5 µM (inactive); with HCT-15, 2.56 µM; in the test on M14, 12 µM (inactive); with OVCAR-3, 6.22 µM (inactive); with MDA-MB-435, 14.5 µM (inactive). Also, the GI50 is 29.5 µM (inactive) in the test on SNB-19 and 3.89 µM (inactive) in the test on LOX IMVI.

Turning to `NC(Cc1c[nH]c2cc([N+](=O)[O-])ccc12)C(=O)O` (stereo not given), the GI50 in the test on UACC-62, in the test on KM12, with SF-295, in the test on SN12C, with ACHN and in the test with TK-10 was > 100 µM (inactive) in each case. For the same compound, the GI50 in the test on NCI-H522, in the test on U-251, in the test on UO-31, with SF-539, in the test on RXF 393 and in the test on SW-620 was > 100 µM (inactive) each time. Further, the GI50 in the test on SK-MEL-2 was > 100 µM (inactive); in the test with OVCAR-4 it was > 100 µM (inactive); in the test on HCT-15, above 100 µM; in the test with M14, > 100 µM (inactive); in the test on OVCAR-3, > 100 µM (inactive); in the test with MDA-MB-435, > 100 µM (inactive). The GI50 in the test on SNB-19 and in the test with LOX IMVI was > 100 µM (inactive) throughout.

In the case of `CC1=NN(c2ccccc2)C(=O)C1/N=N/c1ccc([As](=O)(O)O)c(O)c1` (stereo not given), the GI50 with UACC-62, with KM12, in the test on SF-295, with SN12C, in the test on ACHN and in the test with TK-10 was > 100 µM (inactive) throughout. The GI50 in the test with NCI-H522, in the test with U-251, in the test on UO-31, in the test with SF-539, in the test with RXF 393 and in the test on SW-620 was > 100 µM (inactive) in each case. Further, the GI50 was > 100 µM (inactive) with SK-MEL-2; > 100 µM (inactive) in the test with OVCAR-4; above 100 µM in the test with HCT-15; > 100 µM (inactive) in the test on M14; > 100 µM (inactive) in the test with OVCAR-3; > 100 µM (inactive) in the test with MDA-MB-435. Also, the GI50 in the test with SNB-19 and in the test with LOX IMVI was > 100 µM (inactive) in each case.

`CC(=O)/C=C/C=C(\C)CC/C=C(\C)CC(C)C`: the GI50 with UACC-62 is 18.1 µM (inactive); in the test with KM12, 27.7 µM (inactive); with SF-295, 30.8 µM (inactive); in the test with SN12C, 31.4 µM (inactive); in the test on ACHN it was 29.9 µM (inactive); in the test on TK-10 it was > 100 µM (inactive). The GI50 with NCI-H522 is 17.6 µM (inactive); with U-251 it was 25.4 µM (inactive); with UO-31 it was 76.6 µM (inactive); with SF-539, 21.7 µM (inactive); in the test on RXF 393, 16.2 µM (inactive); with SW-620, 17.1 µM (inactive). Moreover, the GI50 in the test with SK-MEL-2 was 20 µM (inactive); in the test with OVCAR-4, 42.1 µM (inactive); in the test on HCT-15 it was 16 µM; in the test on M14 it was 52.2 µM (inactive); in the test with OVCAR-3 it was 26.4 µM (inactive); in the test with MDA-MB-435 it was 27.9 µM (inactive). Besides, the GI50 with SNB-19 is 42.4 µM (inactive); in the test on LOX IMVI, 18.3 µM (inactive).

Take `O=C1N/C(=N/N=C/c2ccccc2)N/C1=C\c1cccs1`: the GI50 in the test with UACC-62 is 20.1 µM (inactive); in the test on KM12, 18.4 µM (inactive); in the test with SF-295, 17.4 µM (inactive); with SN12C, 19.1 µM (inactive); in the test on ACHN, 15.9 µM (inactive); with TK-10, 23.1 µM (inactive). Also, the GI50 with NCI-H522 is 1.98 µM (inactive); in the test with U-251, 15.6 µM (inactive); in the test with UO-31 it was 21.8 µM (inactive); in the test on SF-539, 10.4 µM (inactive); in the test with RXF 393 it was 17.7 µM (inactive); in the test on SW-620, 11.7 µM (inactive). Moreover, the GI50 in the test on SK-MEL-2 is 8.57 µM (inactive); with OVCAR-4 it was 22.3 µM (inactive); with HCT-15, 17.9 µM; in the test with M14, 29.3 µM (inactive); with OVCAR-3, 15.4 µM (inactive); in the test on MDA-MB-435, 7.52 µM (inactive). Also, the GI50 was 21.9 µM (inactive) in the test with SNB-19 and 8.34 µM (inactive) in the test with LOX IMVI.
